Laboratory results: ChEMBL document CHEMBL1201862, “PubChem BioAssay data set” (2004)
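Test compounds were applied to cells in 96-well plates for 48 hours at 5 doses. Here, GI50 denotes the concentration required for 50% inhibition of growth.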 The source made the active and inactive calls. No stated cut-off is given here; in the data, active = GI50 up to about 1.1 µM and inactive = higher.

Key:
Experiment in all cases: growth of human tumour cells (NCI), 48 h
Malme-3M = system: Malme-3M
786-0 = system: 786-0
CCRF-CEM = system: CCRF-CEM
A498 = system: A498
LOX IMVI = system: LOX IMVI
EKVX = system: EKVX
SK-MEL-28 = system: SK-MEL-28
MOLT-4 = system: MOLT-4
OVCAR-4 = system: OVCAR-4
SK-MEL-2 = system: SK-MEL-2
OVCAR-5 = system: OVCAR-5
HOP-62 = system: HOP-62
MCF7 = system: MCF7
MDA-MB-435 = system: MDA-MB-435
HL-60 = system: HL-60
OVCAR-8 = system: OVCAR-8
HOP-92 = system: HOP-92
SR = system: SR
SF-295 = system: SF-295
IGROV-1 = system: IGROV-1

Measured: GI50

Clc1cc(Cl)c2cc3cccc[n+]3cc2c1Cl
inactive: Malme-3M 22.2 µM | 786-0 18.7 µM | CCRF-CEM 12.1 µM | A498 18.6 µM | LOX IMVI 15.7 µM | EKVX 13.8 µM | SK-MEL-28 15.5 µM | MOLT-4 14 µM | OVCAR-4 15.5 µM | SK-MEL-2 16.3 µM | OVCAR-5 19.2 µM | HOP-62 15.6 µM | MCF7 14.2 µM | MDA-MB-435 16.3 µM | HL-60 12.7 µM | OVCAR-8 15.1 µM | HOP-92 5.87 µM | SR 12.2 µM | SF-295 18 µM

O=C(OCCN=C1c2ccccc2CCc2ccccc21)c1cc([N+](=O)[O-])cc([N+](=O)[O-])c1
inactive: Malme-3M > 31.6 µM | 786-0 > 31.6 µM | CCRF-CEM 74.6 µM | A498 > 10 µM | LOX IMVI > 31.6 µM | EKVX > 31.6 µM | SK-MEL-28 > 31.6 µM | MOLT-4 4.22 µM | OVCAR-4 78.2 µM | SK-MEL-2 > 31.6 µM | OVCAR-5 > 31.6 µM | HOP-62 > 31.6 µM | IGROV-1 28.2 µM | MCF7 > 31.6 µM | MDA-MB-435 > 31.6 µM | HL-60 25.7 µM | OVCAR-8 > 31.6 µM | HOP-92 > 31.6 µM | SR 3.52 µM | SF-295 23.6 µM

O=C1C(Nc2ccc(S(=O)(=O)Nc3cnc4ccccc4n3)cc2)=C/C(=N\c2ccc(S(=O)(=O)Nc3cnc4ccccc4n3)cc2)c2ccccc21
inactive: Malme-3M 17.9 µM | 786-0 17.2 µM | CCRF-CEM 24 µM | A498 15.3 µM | LOX IMVI 16.2 µM | EKVX 18.2 µM | SK-MEL-28 18.1 µM | MOLT-4 25 µM | OVCAR-4 20.8 µM | SK-MEL-2 17.9 µM | OVCAR-5 16.3 µM | HOP-62 18.3 µM | IGROV-1 19.1 µM | MCF7 19.5 µM | MDA-MB-435 18.9 µM | HL-60 27.9 µM | OVCAR-8 19.8 µM | HOP-92 15 µM | SR 31.4 µM | SF-295 16.3 µM

CC[C@@]1(C)CCC2c3ccc(O)cc3CC[C@H]2C1C (some centres undefined)
inactive: Malme-3M 16.6 µM | 786-0 16.2 µM | CCRF-CEM 16.5 µM | A498 19.6 µM | LOX IMVI 17 µM | EKVX 18.2 µM | SK-MEL-28 17.8 µM | MOLT-4 14.8 µM | OVCAR-4 19.4 µM | SK-MEL-2 18.6 µM | OVCAR-5 18.8 µM | HOP-62 18.7 µM | IGROV-1 20.8 µM | MCF7 15.1 µM | MDA-MB-435 15.6 µM | HL-60 10.8 µM | OVCAR-8 17.7 µM | HOP-92 6.85 µM | SR 14.3 µM | SF-295 18.8 µM

CC(=O)OCC1(C)C(O)CCC2(C)C1CCC1CC3CC12CCC3(O)CO (centres undefined)
active: A498 0.541 µM
inactive: Malme-3M > 100 µM | 786-0 44.4 µM | CCRF-CEM 9.77 µM | LOX IMVI 44.3 µM | EKVX > 100 µM | SK-MEL-28 > 100 µM | MOLT-4 > 56.5 µM | OVCAR-4 > 87.5 µM | SK-MEL-2 > 100 µM | OVCAR-5 > 100 µM | HOP-62 36.5 µM | IGROV-1 > 47 µM | MCF7 > 100 µM | MDA-MB-435 > 100 µM | HL-60 6.35 µM | OVCAR-8 44.1 µM | HOP-92 > 81.5 µM | SR 4.42 µM | SF-295 10.8 µM

C[C@]12C(=O)OC[C@H](c3ccccc3)N1C(=O)N(Cc1ccccc1)[C@@H]2CO
inactive: Malme-3M > 100 µM | 786-0 > 100 µM | CCRF-CEM > 100 µM | A498 > 100 µM | LOX IMVI > 100 µM | EKVX > 100 µM | SK-MEL-28 > 100 µM | MOLT-4 > 100 µM | OVCAR-4 > 100 µM | SK-MEL-2 > 100 µM | OVCAR-5 > 100 µM | HOP-62 > 100 µM | IGROV-1 > 100 µM | MCF7 > 100 µM | MDA-MB-435 > 100 µM | HL-60 > 100 µM | OVCAR-8 > 100 µM | HOP-92 > 100 µM | SR > 100 µM | SF-295 > 100 µM

Cc1c(C(=O)c2ccc(N)c3ccccc23)c2ccccc2n1CCN1CCOCC1
inactive: Malme-3M 18.3 µM | 786-0 28 µM | CCRF-CEM 2.9 µM | A498 29.3 µM | LOX IMVI 22.5 µM | EKVX 29.1 µM | SK-MEL-28 43.5 µM | MOLT-4 12 µM | OVCAR-4 3.1 µM | SK-MEL-2 18.6 µM | OVCAR-5 25.9 µM | HOP-62 5.74 µM | IGROV-1 27.1 µM | MCF7 21.2 µM | MDA-MB-435 2.02 µM | HL-60 22.3 µM | OVCAR-8 31.2 µM | HOP-92 21.9 µM | SR > 32.8 µM | SF-295 3.15 µM

Nc1ncnc2ccc(Sc3ccc4ncnc(N)c4c3)cc12
inactive: Malme-3M > 100 µM | 786-0 > 100 µM | CCRF-CEM > 100 µM | A498 > 100 µM | LOX IMVI > 100 µM | EKVX > 100 µM | SK-MEL-28 > 100 µM | MOLT-4 > 100 µM | OVCAR-4 > 100 µM | SK-MEL-2 > 100 µM | OVCAR-5 > 100 µM | HOP-62 > 100 µM | IGROV-1 > 100 µM | MCF7 > 100 µM | MDA-MB-435 > 100 µM | HL-60 > 100 µM | OVCAR-8 > 100 µM | HOP-92 71.3 µM | SR > 100 µM | SF-295 > 100 µM

NC(=O)CN1CC(C2=C(O)CN(CC(N)=O)C2=O)=CC1=O
inactive: Malme-3M > 100 µM | 786-0 > 100 µM | CCRF-CEM > 100 µM | A498 > 100 µM | LOX IMVI > 100 µM | EKVX > 100 µM | SK-MEL-28 > 100 µM | MOLT-4 > 100 µM | OVCAR-4 > 100 µM | SK-MEL-2 > 100 µM | OVCAR-5 > 100 µM | HOP-62 > 100 µM | IGROV-1 > 100 µM | MCF7 > 100 µM | MDA-MB-435 > 100 µM | HL-60 > 100 µM | OVCAR-8 > 100 µM | HOP-92 > 100 µM | SR > 100 µM | SF-295 > 100 µM

CCOC(=O)C1C(=O)CC(C)(O)C(C(=O)OCC)C1c1ccc(N(C)C)cc1 (centres undefined)
inactive: Malme-3M > 100 µM | 786-0 > 100 µM | CCRF-CEM > 100 µM | A498 > 100 µM | LOX IMVI > 100 µM | EKVX > 100 µM | SK-MEL-28 > 100 µM | MOLT-4 > 100 µM | OVCAR-4 > 100 µM | SK-MEL-2 > 100 µM | OVCAR-5 > 100 µM | HOP-62 > 100 µM | IGROV-1 > 100 µM | MCF7 > 100 µM | MDA-MB-435 > 100 µM | HL-60 > 100 µM | OVCAR-8 > 100 µM | HOP-92 > 100 µM | SR > 100 µM | SF-295 > 100 µM

CC1(C)CCCC2(C)C3=C(CCC12)C(=O)OC3 (centres undefined)
inactive: Malme-3M > 100 µM | 786-0 > 100 µM | CCRF-CEM > 100 µM | A498 > 100 µM | LOX IMVI > 100 µM | EKVX > 100 µM | SK-MEL-28 > 100 µM | MOLT-4 18.3 µM | OVCAR-4 55.7 µM | SK-MEL-2 > 100 µM | OVCAR-5 > 100 µM | HOP-62 > 100 µM | IGROV-1 > 100 µM | MCF7 > 100 µM | MDA-MB-435 > 100 µM | HL-60 17.6 µM | OVCAR-8 > 100 µM | HOP-92 > 100 µM | SR 39.4 µM | SF-295 > 100 µM

CC(C)CC1C(=O)NCCC(NC(=O)C(N)Cc2ccc(O)cc2)C(=O)NC(Cc2ccccc2)C(=O)NC(Cc2ccccc2)NC1=O (centres undefined)
inactive: Malme-3M > 100 µM | 786-0 > 100 µM | CCRF-CEM > 100 µM | A498 > 100 µM | LOX IMVI > 100 µM | EKVX > 100 µM | SK-MEL-28 > 100 µM | MOLT-4 > 100 µM | OVCAR-4 > 100 µM | SK-MEL-2 > 100 µM | OVCAR-5 > 100 µM | HOP-62 > 100 µM | IGROV-1 > 100 µM | MCF7 > 100 µM | MDA-MB-435 > 100 µM | HL-60 > 100 µM | OVCAR-8 > 100 µM | HOP-92 72.9 µM | SR > 100 µM | SF-295 > 100 µM

CC(C)(C)OC(=O)NC(CS(=O)(=O)O)C(=O)O (centres undefined)
inactive: Malme-3M > 100 µM | 786-0 > 100 µM | CCRF-CEM > 100 µM | A498 > 100 µM | LOX IMVI > 100 µM | EKVX > 100 µM | SK-MEL-28 > 100 µM | MOLT-4 > 100 µM | OVCAR-4 > 100 µM | SK-MEL-2 > 100 µM | OVCAR-5 > 100 µM | HOP-62 > 100 µM | IGROV-1 > 100 µM | MCF7 > 100 µM | MDA-MB-435 > 100 µM | HL-60 > 100 µM | OVCAR-8 > 100 µM | HOP-92 > 100 µM | SR > 100 µM | SF-295 > 100 µM

CSc1ccc2c(c1)N(CCCN(C)C)c1ccccc1S2
inactive: Malme-3M 9.16 µM | 786-0 13.7 µM | CCRF-CEM 5.89 µM | A498 11.2 µM | LOX IMVI 11.6 µM | EKVX 18.6 µM | SK-MEL-28 2.29 µM | MOLT-4 5.81 µM | OVCAR-4 11.5 µM | SK-MEL-2 15.6 µM | OVCAR-5 15.3 µM | HOP-62 14 µM | IGROV-1 13.2 µM | MCF7 11.9 µM | MDA-MB-435 4.67 µM | HL-60 12 µM | OVCAR-8 17.2 µM | HOP-92 11.7 µM | SR 6.19 µM | SF-295 12.8 µM
